Patent US20120196324A1, “Method for Producing an Antifungal Peptide in a Filamentous Fungal Host Cell” (NOVOZYMES A/S, priority 2007, published 2012)

What was measured:
[1] = system: Aspergillus oryzae ToC1512; experiment: Tolerance to ETD151: growth in YCM with ETD151; format: cell-based; conditions: YCM with different amounts of ETD151 (maximum 5815 mg/L), 6 days
Description: (§1) Selected strains were subjected to YCM with 0-5815 mg/L ETD151 for 6 days in order to test tolerance to ETD151.
(§2) To test the tolerance to ETD151, ToC1512, BECh2 and the 7 gcs^− mutants were grown in YCM with different amounts of ETD151 (maximum 5815 mg/L). […] One of the gcs^− mutants (no. 18) was hereafter selected and named PtSL1.

Aspergillus oryzae BECh2 = experiment: Tolerance to ETD151: growth in YCM with ETD151; format: cell-based; conditions: YCM with different amounts of ETD151 (maximum 5815 mg/L), 6 days
Description: as §1, §2

[2] = system: gcs- mutants of A. oryzae ToC1512; experiment: Tolerance to ETD151: growth in YCM with ETD151; format: cell-based, Aspergillus oryzae; conditions: high concentrations of ETD151 (maximum 5815 mg/L), 6 days, 7 gcs- mutants
Description: as §1, §2

Candida utilis = experiment: Bioassay (plate assay, growth inhibition seen as clearing zones); format: cell-based; conditions: ETD151 expressed by BECh2 transformants (pPtSL4); Candida utilis as target organism
Description: ETD151 was diluted to 58 μg/ml in peptide dilution buffer (0.1% BSA, 0.01% Acetic Acid) and further on to 6 μg/ml and 0.6 μg/ml and used as control. Candida utilis was grown on YPD plates, A. oryzae on Cove N medium slants. An inoculum of fungal growth was resuspended in 0.1% Tween to an optical density of approx. 1 McFarland Unit. A NUNC-tube with 15 ml ⅓ PD agarose at approx. 42° C. was inoculated with approx. 6×10^6 CFU, mixed thoroughly and poured into a sterile 9 cm square dish (Falcon 351112) on a levelling table and allowed to solidify and set for 30 minutes. Ten μl of each of the peptide dilutions was added to the surface of the plate. The plates were incubated at 30° C. (or 37° C. as appropriate). The next day, growth was detected either by observing the inhibition zones by oblique illumination (or by adding 3 ml of a 3 mM MTT solution and leaving the plate for 1-2 hours at room temperature).
BECh2 was transformed with plasmid pPtSL4 and subjected to amdS medium. amdS resistant colonies were isolated as spores from single sporangies and subjected to amdS medium twice. From 45 BECh2 transformants, 43 were subjected to a Bioassay as described using Candida utilis as target organism and to SDS gel electrophoresis.

[3] = system: Pichia pastoris gcs-deletion mutants; conditions: glucosylceramide synthetase deficient Pichia pastoris; cited from earlier work
[4] = system: Candida albicans gcs-deletion mutants; conditions: glucosylceramide synthetase deficient Candida albicans; cited from earlier work

Substance	growth of strain in presence of ETD151 [1]	growth of strain in presence of ETD151 (Aspergillus oryzae BECh2)	growth of strain in presence of ETD151 [2]	growth inhibition in plate Bioassay (Candida utilis)	susceptibility of gcs-deletion mutants [3]	susceptibility of gcs-deletion mutants [4]
ETD151: heliomycin derivative, antifungal defensin peptide shown in SEQ ID NO: 7, expressed in Aspergillus oryzae (DKLIGSCVWGAVNYTSNCRAECKRRGYKGGHCGSFANVNCWCET; heliomycin derivative)	did not grow at all	grew badly	grew very well	clearing zones	–	–
RsAFP2: antifungal defensin (QKLCQRPSGTWSGVCGNNNACKNQCIRLEKARHGSCNYVFPAHKCICYFPC; UniProt P30230 30-80, looked up)	–	–	–	–	resistant	resistant
